According to publication PMC12016938, “A small molecule PKCε inhibitor reduces hyperalgesia induced by paclitaxel or opioid withdrawal” (JCI Insight, 2025):
Where “and” joins values, the source holds several entries; their conditions need not be identical. Equal values may be shown once. Read-outs that look alike come from different tables or passages of the source.

Assay: Pharmacokinetic studies in rats (plasma and brain)
Format: in vivo
Experimental: Because binding to plasma protein was approximately 90%, we predicted that the free concentration at each time point was 10 times lower than the measured plasma concentration.
Pharmacokinetic studies in rats. Pharmacokinetics studies were contracted to the Drug Metabolism and Pharmacokinetics Core at Scripps Research. CP612 was dissolved at in 10% Tween-80/90% water and administered at 40 mg/kg/5 mL. Six rats were injected i.v. and 6 were injected i.p. Three rats were used to collect a full plasma time course from 5 minutes to 24 hours after dose. Then, brains were collected from these rats at 24 hours and from 3 additional rats at 2 hours after administration of compound. One rat receiving i.p. administration of CP612 was excluded as it had low/nondetectable levels indicating missed i.p. injection in that rat. Plasma samples were diluted 10-fold in blank plasma. Each brain was disrupted in potassium phosphate buffer (pH 7.4; 9 μL per 1mg tissue) on ice using brief sonication pulses. CP612 was detected with an API Triple Quad 5500 LC-MS/MS (SCIEX) using an MRM(+) method: CP612 (463/282, m/z) with carbamazepine (238/195.1, m/z) as an internal standard.

[1] = rat, i.v. 40 mg/kg, 24h, individual rat, 40 mg/kg
[2] = rat, plasma, ip, 40 mg/kg, i.p. 40 mg/kg, individual rat
[3] = rat, plasma, ip, 40 mg/kg, i.p. 40 mg/kg, mean all rats
[4] = rat, plasma, iv, 40 mg/kg, i.v. 40 mg/kg, individual rat
[5] = rat, plasma, iv, 40 mg/kg, i.v. 40 mg/kg, mean all rats

For `N[C@H](CNC(=O)C1(c2ccc(Cl)cc2)CCCC1)c1ccc(C(=O)Nc2ccncc2)cc1` [CP612], the Plasma concentration (rat, i.v. 40 mg/kg, 6h, individual rat, 40 mg/kg) was 1.8230 µM and 1.1599 µM, the Plasma concentration (rat, i.v. 40 mg/kg, 8h, individual rat, 40 mg/kg) was 1.5465 µM and 1.2657 µM and the Brain/Plasma [1] was 11.80 and 2.82 and 12.90. For the same molecule, the Plasma concentration [1] was 0.1270 µM and 0.2873 µM and 0.1609 µM, the concentration at 2 h (rat, i.v. 40 mg/kg, 24h, individual rat, 40 mg/kg, read-out: Brain concentration) was 1.4990 µM and 0.8100 µM and 2.0757 µM and the “Plasma 2h/24h” value (rat, i.v. 40 mg/kg, individual rat, 40 mg/kg) was 88.9456 and 42.9323 and 75.0336. For the same molecule, the “Plasma 2h/24h” value (rat, i.v. 40 mg/kg, mean all rats) was 68.9705, the “Plasma 2h/24h” value (rat, i.v. 40 mg/kg, mean of RM Plasma + Brain 24h rats) was 68.9705 and the Cmax (rat, ip, rats, 40 mg/kg i.p., plasma) was 29.3 ± 1 µM. The Cmax (rat, iv, rats, 40 mg/kg i.v., plasma) was 104 ± 3.1 µM, the concentration at 15 min [2] was 22 µM and the concentration at 15 min [3] was 21.9 µM. The concentration at 30 min [2] was 30.2 µM, the concentration at 30 min [3] was 25.4 µM and the concentration at 1 h [2] was 28.3 µM. The concentration at 1 h [3] was 28.3 µM, the concentration at 4 h [2] was 5.16 µM and the concentration at 4 h [3] was 5.82 µM. The concentration at 6 h (rat, plasma, ip, 40 mg/kg, i.p. 40 mg/kg, 6h, individual rat) was 1.91 µM, the concentration at 6 h (rat, plasma, ip, 40 mg/kg, i.p. 40 mg/kg, 6h, mean all rats) was 1.89 µM and the concentration at 8 h (rat, plasma, ip, 40 mg/kg, i.p. 40 mg/kg, 8h, individual rat) was 2.29 µM. It also gave a concentration at 8 h (rat, plasma, ip, 40 mg/kg, i.p. 40 mg/kg, 8h, mean all rats) of 2.13 µM, a concentration at 2 h (rat, plasma, ip, 40 mg/kg, rat, i.p. 40 mg/kg, 2h, individual rat, read-out: Plasma concentration) of 14.4 µM and a concentration at 2 h (rat, plasma, ip, 40 mg/kg, rat, i.p. 40 mg/kg, 2h, mean all rats, read-out: Plasma concentration) of 15 µM. For the same molecule, the concentration at 2 h (rat, plasma, ip, 40 mg/kg, rat, i.p. 40 mg/kg, 2h, mean of Plasma 2h, Brain 2h rats, read-out: Plasma concentration) was 15.1 µM, the concentration at 2 h (rat, plasma, ip, 40 mg/kg, rat, i.p. 40 mg/kg, 2h, mean of RM Plasma + Brain 24h rats, read-out: Plasma concentration) was 14.7 µM and the concentration at 24 h (rat, plasma, ip, 40 mg/kg, rat, i.p. 40 mg/kg, 24h, individual rat, read-out: Plasma concentration) was 0.38 µM. It also gave a concentration at 24 h (rat, plasma, ip, 40 mg/kg, rat, i.p. 40 mg/kg, 24h, mean all rats, read-out: Plasma concentration) of 0.498 µM, a concentration at 24 h (rat, plasma, ip, 40 mg/kg, rat, i.p. 40 mg/kg, 24h, mean of RM Plasma + Brain 24h rats, read-out: Plasma concentration) of 0.498 µM and a half-life (rat, plasma, ip, rats, 40 mg/kg i.p.) of 6.8 ± 0.7 h. The concentration at 5 min [4] was 80.3 µM, the concentration at 5 min [5] was 80.3 µM and the concentration at 15 min [4] was 57 µM. For the same molecule, the concentration at 15 min [5] was 52.6 µM, the concentration at 30 min [5] was 28.5 µM and the concentration at 1 h [4] was 26.4 µM. For the same molecule, the concentration at 1 h [5] was 24.8 µM, the concentration at 4 h [4] was 3.97 µM and the concentration at 4 h [5] was 4.11 µM. It also gave a concentration at 6 h (rat, plasma, iv, 40 mg/kg, i.v. 40 mg/kg, 6h, individual rat) of 1.68 µM, a concentration at 6 h (rat, plasma, iv, 40 mg/kg, i.v. 40 mg/kg, 6h, mean all rats) of 1.55 µM and a concentration at 8 h (rat, plasma, iv, 40 mg/kg, i.v. 40 mg/kg, 8h, individual rat) of 1.42 µM. The concentration at 8 h (rat, plasma, iv, 40 mg/kg, i.v. 40 mg/kg, 8h, mean all rats) was 1.41 µM, the concentration at 2 h (rat, plasma, iv, 40 mg/kg, rat, i.v. 40 mg/kg, 2h, individual rat, read-out: Plasma concentration) was 11.3 µM and the concentration at 2 h (rat, plasma, iv, 40 mg/kg, rat, i.v. 40 mg/kg, 2h, mean all rats, read-out: Plasma concentration) was 13.9 µM. It also gave a concentration at 2 h (rat, plasma, iv, 40 mg/kg, rat, i.v. 40 mg/kg, 2h, mean of Plasma 2h, Brain 2h rats, read-out: Plasma concentration) of 16 µM, a concentration at 2 h (rat, plasma, iv, 40 mg/kg, rat, i.v. 40 mg/kg, 2h, mean of RM Plasma + Brain 24h rats, read-out: Plasma concentration) of 11.9 µM and a concentration at 24 h (rat, plasma, iv, 40 mg/kg, rat, i.v. 40 mg/kg, 24h, mean all rats, read-out: Plasma concentration) of 0.192 µM. The concentration at 24 h (rat, plasma, iv, 40 mg/kg, rat, i.v. 40 mg/kg, 24h, mean of RM Plasma + Brain 24h rats, read-out: Plasma concentration) was 0.192 µM, the half-life (rat, plasma, iv, rats, 40 mg/kg i.v.) was 4 ± 0.6 h and the Brain penetration (rats, i.p. or i.v. injection) was “brain penetrant”.
